Assay results: the NIST ThermoML archive (doi:10.1016/j.fluid.2006.06.005)
± gives the expanded uncertainty stated by the source.

Settings: 323.15 K; Liquid

Row | vapor or sublimation pressure [kPa] | SMILES
1 | 7.72 ± 0.28 | CC(=O)O [acetic acid]
2 | 55.61 ± 0.52 | CO [methanol]
3 | 79.21 ± 0.71 | COC(C)=O [methyl ethanoate]
4 | 12.35 ± 0.17 | O [water]
